Experimental data: US20100069451A1, “SALT OF 3-BENZYL-2-METHYL-2,3,3A,4,5,6,7, 7A- OCTAHYDROBENZO[D]ISOXAZOL-4-ONE” (ABIOGEN PHARMA S.P.A, priority 2006, published 2010)
Structures can show the parent of a compound that is named as a salt. Where two headings read alike, the source gives them in different places.

Tests used:
[1] = Stability test of BTG 1640 salts under storage conditions: purity; format: physicochemical; details: for Purity %: time 0 (months)
Procedure: Samples of 100 mg each of BTG 1640 hydrochloride were subjected to the following preservation conditions:
The purities were then analyzed periodically, initially every three months, in order to underline possible variations.
Samples of 100 mg each of BTG 1640 oxalate prepared according to example 1B were subjected to the following preservation conditions:
Quarterly and in an overall period of nine months its purity was then analyzed in order to point out possible variations.
The stabilities were then evaluated by subjecting samples of 100 mg of each salt to the following analogous preservation conditions:
Quarterly and in an overall period of nine months their purity was then analyzed in order to underline possible variations.

[2] = Stability test of BTG 1640 salts under storage conditions: total impurities; format: physicochemical; details: for Impurity profile (in words): condition d): 40° C./75% RH
Procedure: Contemporaneously, the impurity analysis in the conditions a)-d) of T/% RH were carried out.
As a confirmation of such evidence, a test for the evaluation of the impurity percentage of the sample subjected to the same conditions a)-d) of T/% RH was parallely carried out. The experimental values in Table 4 were obtained.

female CD-1 mice = experiment: Acute oral toxicity; format: in vivo; details: for Clinical signs / Histopathological examination of kidneys: female CD-1 mice
Procedure: Acute oral toxicity of salts hydrochloride and oxalate of BTG-1640 was evaluated.
The two salts were dispersed in an aqueous suspension, thus obtaining two formulations, each one orally administered through oesophageous gavage at dose of 2000 mg/kg bw (expressed as free base of BTG 1640) to one of two groups comprising three female CD-1 mice per group.
The observation lasted 14 days.

[3] = Absorption kinetic after oral administration: plasma concentration of BTG 1640; format: in vivo, rats Sprague Dawley; details: rat
Procedure: Absorption extent and rate of molecule BTG 1640 in its forms of oxalate and hydrochloride salts were evaluated.
With this intent, the two salts were dispersed in an aqueous suspension of arabic gum at 5% thus obtaining two formulations, each one orally administered through oesophageous gavage at dose of 10 mg/kg (expressed as free base of BTG 1640) to five rats Sprague Dawley.
Plasma concentration of molecule BTG 1640 was determined at different time points (see Table 7).

[4] = condition d): 40° C./75% RH, up to six months
[5] = T = 25° C., humidity 60% RH, time 0 (months)
[6] = T = 30° C., humidity 65% RH, time 0 (months)
[7] = 2000 mg/kg bw oral (as free base)
[8] = T = 40° C., humidity 75% RH, time 0 (months)
[9] = Sprague Dawley, in vivo, po, 10 mg/kg

| SMILES | Stability (in words) [1, 4] | Stability compared with BTG 1640 hydrochloride (in words) ([1]; conditions a)-d)) | % impurities [2, 5] | % impurities [2, 6] | Clinical signs (female CD-1 mice; [7]) | Histopathological examination of kidneys (female CD-1 mice; [7]) | % impurities ([2]; T = 5° C., time 0 (months)) | % impurities [2, 8] | Impurity profile (in words) [2] | further results |
| --- | --- | --- | --- | --- | --- | --- | --- | --- | --- | --- |
| CN1OC2CCCC(=O)C2C1Cc1ccccc1.O=C(O)/C=C\C(=O)O (stereo not drawn) [BTG 1640 maleate] | degrades in unacceptable way | even worse | 0.23% | 0.23% | – | – | – | – | – | Stability (in words) ([1]; condition c) 30° C./65% RH, at sixth month): considerable degradation; Stability (in words) ([1]; conditions a) and b)): acceptable profile |
| CN1OC2CCCC(=O)C2C1Cc1ccccc1.O=C(O)CCC(=O)O (stereo not drawn) [BTG 1640 succinate] | – | even worse | 0.77% | 0.77% | – | – | – | – | – | Stability (in words) ([1]; all observation conditions a)-d), from the third month): shows degradation |
| CN1OC2CCCC(=O)C2C1Cc1ccccc1.CS(=O)(=O)O (stereo not drawn) [BTG 1640 methanesulphonate] | – | even worse | 0.42% | 0.42% | – | – | – | – | – | Stability (in words) ([1]; conditions b)-d)): begins to degrade already after three months |
| CN1OC2CCCC(=O)C2C1Cc1ccccc1.Cl (stereo not drawn) [BTG 1640 hydrochloride, reference compound] | strong instability | – | 0.36% | 0.36% | Lethargy, ataxia, aggressiveness and vocalization | small foci of acute tubular necrosis in the cortex, balloon degeneration of the epithelium and dilatation of convoluted tubules | 0.36% | 0.36% | unacceptable percentage of impurities | Stability (in words) ([1]; conditions a)-c): 5° C., 25° C./60% RH, 30° C./65% RH, 12 months): good stability; Validity time period ([1]; indicated on the basis of the stability results, preserved at 2-8° C.): 12 months; Lethality (female CD-1 mice; 2000 mg/kg bw oral (as free base), three female CD-1 mice, 14 days observation): lethal in two animals out of three; BTG 1640 free base concentration in plasma ([3]; oral gavage 10 mg/kg (as free base), 5% arabic gum suspension, 300 minutes): 0 µg/mL |
| CN1OC2CCCC(=O)C2C1Cc1ccccc1 [BTG 1640 oxalate, oxalate salt of rel-(3R,3aS,7aS)-3-benzyl-2-methyl-2,3,3a,4,5,6,7,7a-octahydrobenzo[d]isoxazol-4-one] | – | – | 0.27% | 0.27% | quickly reversible neurological signs | focal and moderate balloon degeneration of the epithelium in convoluted tubules | 0.27% | 0.27% | invariable impurity profile | Stability compared with BTG 1640 hydrochloride (in words) [1]: higher stability; Purity % ([1]; T = 5° C.): 99.7%; Purity % ([1]; T = 25° C., humidity 60% RH): 99.7%; Purity % ([1]; T = 30° C., humidity 65% RH): 99.7%; Purity % ([1]; T = 40° C., humidity 75% RH): 99.7%; Toxicity compared with hydrochloride (in words) (female CD-1 mice; 2000 mg/kg bw oral, female mice): less toxic; % impurities ([2]; T = 5° C., time 3 (months)): 0.33%; % impurities ([2]; T = 5° C., time 9 (months)): 0.29%; % impurities ([2]; T = 25° C., humidity 60% RH, time 3 (months)): 0.30%; % impurities ([2]; T = 30° C., humidity 65% RH, time 3 (months)): 0.28%; concentration at 2 minutes [3, 9]: 2050 ng/mL; concentration at 5 minutes [3, 9]: 1870 ng/mL; concentration at 30 minutes [3, 9]: 390 ng/mL; concentration at 300 minutes [3, 9]: 0 ng/mL; Absorption compared with hydrochloride (in words) ([3]; in vivo, po, 10 mg/kg): higher absorption |
